Assay results reported in publication PMC6212536, “Allosteric Site Inhibitor Disrupting Auto-Processing of Malarial Cysteine Proteases” (Scientific Reports, 2018).

How the values were obtained:
[1] = molecular target: pro-falcipain-3 (pro-FP3) (Plasmodium falciparum, UniProt Q8IIL0); test: SPR, immobilized pro-enzyme; auto-processing also blocked; format: binding
[2] = molecular target: T1, pro-falcipain-2 (pro-FP2) (Plasmodium falciparum, UniProt Q8I6U4); test: as above; format: binding
T1 construct: gene FP2A
T1 sequence (Q8I6U4 208-484): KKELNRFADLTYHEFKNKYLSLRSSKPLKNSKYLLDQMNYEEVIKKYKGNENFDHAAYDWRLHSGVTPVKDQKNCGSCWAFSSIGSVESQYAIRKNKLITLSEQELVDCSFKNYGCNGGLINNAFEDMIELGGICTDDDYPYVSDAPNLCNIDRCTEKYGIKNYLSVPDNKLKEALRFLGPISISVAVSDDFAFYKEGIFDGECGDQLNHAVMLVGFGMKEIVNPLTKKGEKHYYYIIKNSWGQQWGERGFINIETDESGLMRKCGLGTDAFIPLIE

Sequence of pro-falcipain-3 (pro-FP3) (Q8IIL0 57-492): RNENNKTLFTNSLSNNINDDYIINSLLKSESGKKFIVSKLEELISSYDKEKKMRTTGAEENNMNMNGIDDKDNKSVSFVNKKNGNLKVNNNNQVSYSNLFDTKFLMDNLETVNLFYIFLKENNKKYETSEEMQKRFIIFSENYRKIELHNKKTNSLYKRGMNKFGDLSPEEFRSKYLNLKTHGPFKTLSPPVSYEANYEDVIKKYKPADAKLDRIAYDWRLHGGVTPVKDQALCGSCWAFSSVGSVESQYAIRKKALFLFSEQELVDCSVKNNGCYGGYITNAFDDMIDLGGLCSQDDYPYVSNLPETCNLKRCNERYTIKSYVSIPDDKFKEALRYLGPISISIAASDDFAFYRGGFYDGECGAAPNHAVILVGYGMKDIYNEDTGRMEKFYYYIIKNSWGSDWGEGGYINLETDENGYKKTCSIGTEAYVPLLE

Compound	Kd [1] [nM]	Kd [2] [nM]
O=C(CC1(NC(=O)c2cnccn2)CCCCC1)NNC(=O)c1cnccn1 [NA-03]	2 ± 0.04	1.67 ± 0.01
O=C(CC1(CNC(=O)c2cnccn2)CCCCC1)NNC(=O)c1cnccn1 [NA-01]	5.14 ± 0.07	1.72 ± 0.03
